The values below come from ChEMBL document CHEMBL5375986, “Discovery of Lead 2-Thiazolylhydrazones with Broad-Spectrum and Potent Antifungal Activity” (J Med Chem, 2023).

Structures are written as SMILES. Values after ≈ are worked out from the molar mass of the structure shown.

Usually MIC stands for the lowest concentration found to suppress growth.

One experiment has as its system Cryptococcus neoformans. The experiment can be described thus: Antifungal activity against Cryptococcus neoformans ATCC 24067 assessed as inhibition of fungal growth incubated for 24 to 48 hrs by CLSI based broth microdilution method. It counts as functional. The conditions noted are these: time 24-48 hrs. (In general: Broth dilution looks for growth in wells or tubes with falling amounts of substance.)

Experiment [1] in a line: Antifungal activity against Cryptococcus gattii ATCC 24065 assessed as inhibition of fungal growth incubated for 24 to 48 hrs by CLSI protocol based broth microdilution method. As to conditions: time 24-48 hrs. The class given is functional, Cryptococcus gattii VGI.
For the next experiment, the system named is Candida albicans. The experiment can be described thus: Antifungal activity against Candida albicans SC5314 assessed as inhibition of fungal growth incubated for 24 to 48 hrs by CLSI protocol based broth microdilution method. The class given is functional. The conditions noted are these: time 24-48 hrs.
A further experiment has as its system Nakaseomyces glabratus. The experiment can be described thus: Antifungal activity against Candida glabrata ATCC 2001 assessed as inhibition of fungal growth incubated for 24 to 48 hrs by CLSI protocol based broth microdilution method. The class given is functional. As to conditions: time 24-48 hrs.
In another experiment the test system is Pichia kudriavzevii. The experiment can be described thus: Antifungal activity against Candida krusei ATCC 20298 assessed as inhibition of fungal growth incubated for 24 to 48 hrs by CLSI protocol based broth microdilution method. The class given is functional. The conditions noted are these: time 24-48 hrs.
Another experiment concerns Candida parapsilosis. The experiment can be described thus: Antifungal activity against Candida parapsilosis ATCC 22019 assessed as inhibition of fungal growth incubated for 24 to 48 hrs by CLSI protocol based broth microdilution method. It counts as functional. As to conditions: Lodderomyces parapsilosis, time 24-48 hrs.
The subject of another experiment is Candida tropicalis. The experiment can be described thus: Antifungal activity against Candida tropicalis ATCC 750 assessed as inhibition of fungal growth incubated for 24 to 48 hrs by CLSI protocol based broth microdilution method. The class given is functional. As to conditions: time 24-48 hrs.
A further experiment deals with [Candida] auris. In words: Antifungal activity against Candida auris COLO 01 assessed as inhibition of fungal growth incubated for 24 to 48 hrs by CLSI protocol based broth microdilution method. The class given is functional. As to conditions: Candidozyma auris, time 24-48 hrs.

As to `CCOC(=O)Cc1csc(NN=C(C)CCO)n1`, the minimum inhibitory concentration (MIC) in the experiment with Cryptococcus neoformans was above 125 µM; in experiment [1], above 125 µM; in the experiment with Candida albicans it was 115 µM (≈ 31.3 µg/mL); in the experiment with Nakaseomyces glabratus, 7.2 µM (≈ 1.95 µg/mL); in the experiment on Pichia kudriavzevii it was 3.6 µM (≈ 0.977 µg/mL); in the experiment with Candida parapsilosis it was 115 µM (≈ 31.3 µg/mL). Moreover, the minimal inhibitory concentration (MIC) worked out at 57.6 µM (≈ 15.6 µg/mL) in the experiment with Candida tropicalis and 115 µM (≈ 31.3 µg/mL) in experiment [Candida] auris.

As for `CCOC(=O)Cc1csc(NN=C(C)C(=O)O)n1`, the MIC was above 125 µM with Cryptococcus neoformans; above 125 µM in experiment [1]; 57.6 µM (≈ 15.6 µg/mL) in the experiment on Candida albicans; 28.8 µM (≈ 7.81 µg/mL) with Pichia kudriavzevii; above 125 µM in the experiment on Candida tropicalis; 57.6 µM (≈ 15.6 µg/mL) in experiment [Candida] auris.

On to `CC[C@H](C)C[C@H](C)CCCCCCCCC(=O)N[C@H]1C[C@@H](O)[C@@H](NCCN)NC(=O)[C@@H]2[C@@H](O)CCN2C(=O)[C@H]([C@H](O)CCN)NC(=O)[C@H]([C@H](O)[C@@H](O)c2ccc(O)cc2)NC(=O)[C@@H]2C[C@@H](O)CN2C(=O)[C@H]([C@@H](C)O)NC1=O` [CASPOFUNGIN], for which the MIC in experiment [Candida] auris was determined as 0.1 µM (≈ 0.109 µg/mL).

As to `CCC(C)n1ncn(-c2ccc(N3CCN(c4ccc(OCC5COC(Cn6cncn6)(c6ccc(Cl)cc6Cl)O5)cc4)CC3)cc2)c1=O` (stereo not drawn) [ITRACONAZOLE], the MIC was 1.4 µM (≈ 0.988 µg/mL) in the experiment on Cryptococcus neoformans; 2.8 µM (≈ 1.98 µg/mL) in experiment [1]; 0.7 µM (≈ 0.494 µg/mL) with Candida albicans; 0.4 µM (≈ 0.282 µg/mL) with Nakaseomyces glabratus; 2.8 µM (≈ 1.98 µg/mL) in the experiment on Pichia kudriavzevii; 0.4 µM (≈ 0.282 µg/mL) in the experiment with Candida parapsilosis. For the same compound, the MIC in the experiment with Candida tropicalis was 0.2 µM (≈ 0.141 µg/mL); in experiment [Candida] auris, 0.4 µM (≈ 0.282 µg/mL).

`C/C(=N\Nc1nc(-c2ccc(C#N)cc2)cs1)C(=O)O`: the MIC was 22 µM (≈ 6.3 µg/mL) in the experiment on Cryptococcus neoformans; 175 µM (≈ 50 µg/mL) in experiment [1]; 109 µM (≈ 31.3 µg/mL) in the experiment on Candida albicans; 109 µM (≈ 31.3 µg/mL) in the experiment on Pichia kudriavzevii; above 125 µM in the experiment on Candida tropicalis; 13.7 µM (≈ 3.92 µg/mL) in experiment [Candida] auris.

Regarding `C/C(=N\Nc1nc(-c2ccc(Br)cc2)cs1)C(=O)O`, the MIC with Cryptococcus neoformans was 2.4 µM (≈ 0.816 µg/mL); in experiment [1], 2.4 µM (≈ 0.816 µg/mL); in the experiment with Candida albicans it was 23 µM (≈ 7.82 µg/mL); in the experiment with Pichia kudriavzevii, 23 µM (≈ 7.82 µg/mL); in the experiment with Candida tropicalis, 91.9 µM (≈ 31.3 µg/mL); in experiment [Candida] auris it was 23 µM (≈ 7.82 µg/mL).

For `C/C(=N\Nc1nc(-c2ccc(F)cc2)cs1)C(=O)O`, the MIC with Cryptococcus neoformans is 11.1 µM (≈ 3.1 µg/mL); in experiment [1], 5.7 µM (≈ 1.59 µg/mL); in the experiment with Candida albicans, 28 µM (≈ 7.82 µg/mL); in the experiment on Pichia kudriavzevii it was 28 µM (≈ 7.82 µg/mL); with Candida tropicalis it was 112 µM (≈ 31.3 µg/mL); in experiment [Candida] auris it was 7 µM (≈ 1.96 µg/mL).

Regarding `C/C(=N\Nc1nc(-c2ccc(Cl)cc2)cs1)C(=O)O`, the MIC in the experiment on Cryptococcus neoformans worked out at 5.4 µM (≈ 1.6 µg/mL); in experiment [1], 5.4 µM (≈ 1.6 µg/mL); in the experiment with Candida albicans, 26.4 µM (≈ 7.81 µg/mL); with Pichia kudriavzevii it was 26.4 µM (≈ 7.81 µg/mL); in the experiment on Candida tropicalis, 106 µM (≈ 31.3 µg/mL); in experiment [Candida] auris, 6.6 µM (≈ 1.95 µg/mL).

Turning to `C/C(CCC(=O)O)=N\Nc1nc(-c2ccc(C)cc2)cs1`, the MIC came out at 0.7 µM (≈ 0.212 µg/mL) in the experiment with Cryptococcus neoformans; 0.3 µM (≈ 0.091 µg/mL) in experiment [1]; 6.4 µM (≈ 1.94 µg/mL) with Candida albicans; 6.4 µM (≈ 1.94 µg/mL) with Pichia kudriavzevii; 51.4 µM (≈ 15.6 µg/mL) in the experiment on Candida tropicalis; 3.2 µM (≈ 0.971 µg/mL) in experiment [Candida] auris.

`OC(Cn1cncn1)(Cn1cncn1)c1ccc(F)cc1F` [FLUCONAZOLE]: the MIC in experiment [1] was determined as 52.2 µM (≈ 16 µg/mL); in the experiment with Candida albicans it was 1.6 µM (≈ 0.49 µg/mL); with Nakaseomyces glabratus it was 13.1 µM (≈ 4.01 µg/mL); in the experiment on Pichia kudriavzevii, 104 µM (≈ 32 µg/mL); in the experiment on Candida parapsilosis it was 3.3 µM (≈ 1.01 µg/mL); in the experiment with Candida tropicalis it was 0.8 µM (≈ 0.245 µg/mL).

`COc1ccc(-c2csc(N/N=C(\C)C(=O)O)n2)cc1`: the MIC is 26.8 µM (≈ 7.81 µg/mL) with Candida albicans, 56.6 µM (≈ 16.5 µg/mL) with Pichia kudriavzevii, 56.6 µM (≈ 16.5 µg/mL) in the experiment on Candida tropicalis and 13.4 µM (≈ 3.9 µg/mL) in experiment [Candida] auris.

Take `C/C(=N\Nc1nc(-c2ccc(C)cc2)cs1)C(=O)O`: the MIC stood at 14.2 µM (≈ 3.91 µg/mL) in the experiment on Candida albicans, 28.4 µM (≈ 7.82 µg/mL) in the experiment with Pichia kudriavzevii, 114 µM (≈ 31.3 µg/mL) with Candida tropicalis and 14.2 µM (≈ 3.91 µg/mL) in experiment [Candida] auris.

In the case of `CCOC(=O)/C(C)=N/Nc1nc(-c2ccc(C#N)cc2)cs1`, the MIC in the experiment on Cryptococcus neoformans was 49.7 µM (≈ 15.6 µg/mL); in experiment [1] it was 24.8 µM (≈ 7.8 µg/mL); in the experiment on Candida albicans it was 49.7 µM (≈ 15.6 µg/mL); in the experiment on Pichia kudriavzevii, 99.4 µM (≈ 31.2 µg/mL); in the experiment with Candida parapsilosis it was 24.8 µM (≈ 7.8 µg/mL); in the experiment with Candida tropicalis it was above 125 µM. In experiment [Candida] auris, the MIC amounted to 24.8 µM (≈ 7.8 µg/mL).

For the compound `C/C(=N\Nc1nc(-c2ccccc2)cs1)C(=O)O`, the MIC in the experiment on Candida albicans came to 29.9 µM (≈ 7.81 µg/mL); in the experiment on Pichia kudriavzevii, 29.9 µM (≈ 7.81 µg/mL); with Candida tropicalis, 59.8 µM (≈ 15.6 µg/mL); in experiment [Candida] auris it was 29.9 µM (≈ 7.81 µg/mL).
